Measured values: US6946458B2, “N-thiolated beta-lactams: novel antibacterial agents for methicillin-resistant Staphylococcus aureus” (University of South Florida, priority 1999, dated 2005)

Experiments:
Type in all cases: cell-based, Staphylococcus aureus
[1] = test system: Staphylococcus strains including MRSA; experiment: antibacterial activity screening, results stated in words; settings: Example 3 SAR
Text: However, the N-alkylthio substituent is required, since reduction to the N—H analogue completely destroys the biological activity. […]
(§1) Of particular interest is the ability of these compounds to retain their effectiveness against penicillin-resistant strains of Staphylococcus aureus, a dangerous hospital-borne pathogen which is becoming difficult to treat with conventional antibiotic therapy. The lactams were screened for antibacterial activity by disk diffusion on agar plates, and the resulting zones of bacterial growth inhibition measured (see Table 3; each lactam is designated by Figure number).
With the lactam of FIG. 6A serving as a lead structure, other C4-unsaturated derivatives (FIGS. 6B-6E) and C4-saturated analogues (FIGS. 6F-6H), were examined all of which also have activity against Staphylococcus strains including MRSA.
(§2) Scheme I summarizes the synthesis of ester compounds 4. 4-Carboxy benzaldehyde (1) is coupled with the appropriate alcohol using DCC/DMAP, followed by reaction with p-anisidine, to give imines 2. Staudinger coupling of methoxyacetyl chloride with imine 2 gives N-aryl protected β-lactam 3. N-Dearylation of β-lactam 3 with ceric ammonium nitrate and methylthiolation with N-(methylthio)phthalimide affords N-methylthio β-lactams 4. These compounds are tested for antibacterial activity by the Kirby-Bauer method of disc diffusion on agar plates. [drawing 7]

[2] = test system: MRSA USF656; experiment: Kirby-Bauer agar disk diffusion; design: Kirby-Bauer Disc Diffusion Test Results: unit not given here; settings: for Kirby-Bauer Disc Diffusion Test Results: Table 5, beta-lactamase producing strain; for Zones of Inhibition: Table 4, 20 μg disk loading
Procedure: (§3) In this study, a selection of N-methylthio-substituted β-lactams are examined for antimicrobial activity by the Kirby-Bauer disk diffusion method on agar plates. A variety of common Gram-positive and Gram-negative bacteria are tested, including clinical isolates of methicillin-resistant Staphylococcus aureus (MRSA).
(§4) Compound susceptibility measurements are obtained from agar disk diffusion experiments using 6-mm air-dried disks impregnated with 20 μg of the test compound. The values correspond to the average diameters in mm (triplicate experiments) for the zone of growth inhibition observed after 24 h. Staphylococcus aureus (ATCC 25923) and β-lactamase-producing strains of methicillin-resistant Staphylococcus aureus (labeled as MRSA USF652-659) are obtained from Lakeland Regional Medical Center, Lakeland, Fla. Staphylococcus epidermidis, Staphylococcus simulans, Staphylococcus simulans, and Microcossus luteus are clinical isolates from University of South Florida Medical Clinic. Nieserria gonnorhoeae (β-lactamase positive) is obtained from the Tampa Branch State Laboratory. PenG is penicillin G (potassium salt). Table 1 provides the zones of growth inhibition that are observed after 24 hours using the lactams of FIGS. 1A-1I (designated A-I, respectively).
as §1
(§5) Table 3: Growth inhibition zones obtained from agar disk diffusion experiments using 6-mm air-dried disks impregnated with 20 μg of the test compound. The values correspond to the average diameters in mm for the zone of growth inhibition observed after 24 hours. Staphylococcus aureus and β-lactamase-producing strains of methicillin-resistant Staphylococcus aureus (labeled MRSA USF652-659) are obtained from a clinical testing laboratory at Lakeland Regional Medical Center, Lakeland, Fla.
(§6) Those compounds were tested for bioactivity using the Kirby-Bauer test on agar plates.
(§7) Biological activity is enhanced against β-lactamase producing strains of methicillin-resistant Staphylococcus aureus (MRSA). With the lactam shown in FIG. 11A serving as a lead structure, a series of other C-4 substituted derivatives (FIGS. 11B-11I) were investigated herein. Table 5 lists microbiological data for β-lactams from Kirby-Bauer Disc Diffusion Test Results (with each lactam identified by Figure number).
as §2

[3] = test system: MRSA USF658; experiment: Kirby-Bauer agar disk diffusion; design: Kirby-Bauer Disc Diffusion Test Results: unit not given here; settings: for Kirby-Bauer Disc Diffusion Test Results: Table 5, beta-lactamase producing strain; for Zones of Inhibition: Table 4, 20 μg disk loading
Procedure: as §3, §4, §1, §5, §6, §7, §2

[4] = test system: MRSA USF659; experiment: Kirby-Bauer agar disk diffusion; design: Kirby-Bauer Disc Diffusion Test Results: unit not given here; settings: for Kirby-Bauer Disc Diffusion Test Results: Table 5, beta-lactamase producing strain; for Zones of Inhibition: Table 4, 20 μg disk loading
Procedure: as §3, §4, §1, §5, §6, §7, §2

[5] = test system: MRSA USF657; experiment: Kirby-Bauer agar disk diffusion; design: Kirby-Bauer Disc Diffusion Test Results: unit not given here; settings: for Kirby-Bauer Disc Diffusion Test Results: Table 5, beta-lactamase producing strain; for Zones of Inhibition: Table 4, 20 μg disk loading
Procedure: as §3, §4, §1, §5, §6, §7, §2

[6] = test system: MRSA USF653; experiment: Kirby-Bauer agar disk diffusion; design: Kirby-Bauer Disc Diffusion Test Results: unit not given here; settings: for Kirby-Bauer Disc Diffusion Test Results: Table 5, beta-lactamase producing strain; for Zones of Inhibition: Table 4, 20 μg disk loading
Procedure: as §3, §4, §1, §5, §6, §7, §2

[7] = test system: MRSA USF655; experiment: Kirby-Bauer agar disk diffusion; design: Kirby-Bauer Disc Diffusion Test Results: unit not given here; settings: for Kirby-Bauer Disc Diffusion Test Results: Table 5; for Zones of Inhibition: Table 4, 20 μg disk loading
Procedure: as §3, §4, §1, §5, §6, §7, §2

[8] = test system: MRSA USF654; experiment: Kirby-Bauer agar disk diffusion; design: Kirby-Bauer Disc Diffusion Test Results: unit not given here; settings: for Kirby-Bauer Disc Diffusion Test Results: Table 5, beta-lactamase producing strain; for Zones of Inhibition: Table 4, 20 μg disk loading
Procedure: as §3, §4, §1, §5, §6, §7, §2

[9] = test system: MRSA USF652; experiment: Kirby-Bauer agar disk diffusion; design: Kirby-Bauer Disc Diffusion Test Results: unit not given here; settings: for Kirby-Bauer Disc Diffusion Test Results: Table 5, beta-lactamase producing strain; for Zones of Inhibition: Table 4, 20 μg disk loading
Procedure: as §3, §4, §1, §5, §6, §7, §2

[10] = test system: Staph aureus 525; experiment: Kirby-Bauer agar disk diffusion; settings: for Kirby-Bauer Disc Diffusion Test Results: Table 5; for Zones of Inhibition: Table 4, 20 μg disk loading

| Structure (SMILES) | antibacterial activity, in words [1] | Kirby-Bauer Disc Diffusion Test Results [2] | Kirby-Bauer Disc Diffusion Test Results [3] | Kirby-Bauer Disc Diffusion Test Results [4] | Kirby-Bauer Disc Diffusion Test Results [5] | Kirby-Bauer Disc Diffusion Test Results [6] | Kirby-Bauer Disc Diffusion Test Results [7] | Kirby-Bauer Disc Diffusion Test Results [8] | Kirby-Bauer Disc Diffusion Test Results [9] | Kirby-Bauer Disc Diffusion Test Results [10] | also measured |
| --- | --- | --- | --- | --- | --- | --- | --- | --- | --- | --- | --- |
| COC1C(=O)N(SC)C1C(C#Cc1ccccc1)OC(C)=O (mixture of isomers) [FIG. 6I] | devoid of activity | – | – | – | – | – | – | – | – | – | – |
| COC1C(=O)N(SC)C1c1cccs1 (racemic) [FIG. 11E] | – | 28 | 26 | 24 | 26 | 28 | 29 | 27 | 28 | 27 | – |
| CCC(C)SN1C(=O)C(OC)C1c1ccccc1Cl (mixture of isomers) [sec-Butyl] | – | – | – | – | – | – | – | – | – | – | Zones of Inhibition [2]: 36 mm; Zones of Inhibition [3]: 35 mm; Zones of Inhibition [4]: 33 mm; Zones of Inhibition [5]: 33 mm; Zones of Inhibition [6]: 34 mm; Zones of Inhibition [7]: 34 mm; Zones of Inhibition [8]: 35 mm; Zones of Inhibition [9]: 38 mm; Zones of Inhibition [10]: 32 mm |
| COC1C(=O)N(SC)C1c1ccccc1 (racemic) [FIG. 11B] | – | 28 | 27 | 24 | 28 | 30 | 26 | 26 | 30 | 25 | – |
| COC1C(=O)N(SC2CCCCC2)C1c1ccccc1Cl (racemic) [Cyclo-hexyl] | – | – | – | – | – | – | – | – | – | – | Zones of Inhibition [2]: 23 mm; Zones of Inhibition [3]: 26 mm; Zones of Inhibition [4]: 22 mm; Zones of Inhibition [5]: 23 mm; Zones of Inhibition [6]: 20 mm; Zones of Inhibition [7]: 22 mm; Zones of Inhibition [8]: 21 mm; Zones of Inhibition [9]: 25 mm; Zones of Inhibition [10]: 21 mm |
| COC1C(=O)N(SC)C1c1cccc(Cl)c1 (racemic) [FIG. 11G] | – | 26 | 22 | 15 | 25 | 28 | 23 | 21 | 26 | 24 | – |
| CCCCCOC(=O)c1ccc(C2C(OC)C(=O)N2SC)cc1 (racemic) [FIG. 8C] | activity is maintained | – | – | – | – | – | – | – | – | – | – |
| COC1C(=O)N(SC)C1c1ccccc1 (racemic) [FIG. 6J] | highly active | – | – | – | – | – | – | – | – | – | – |
| COC1C(=O)N(SC)C1c1c(Cl)cccc1Cl (racemic) [FIG. 11I] | – | 22 | 20 | 17 | 20 | 26 | 20 | 21 | 24 | 24 | – |
| COC(=O)c1ccc(C2C(OC)C(=O)N2SC)cc1 (racemic) [FIG. 7J] | showing antibacterial activity | – | – | – | – | – | – | – | – | – | – |
